Assay results as given in patent publication US8088741B2, “Compounds for enzyme inhibition” (Onyx Therapeutics, Inc., priority 2004, dated 2012).

How the values were obtained:
[1] = biological target: 20S proteasome chymotrypsin-like activity (CT-L) (Homo sapiens, UniProt P28074); assay: 20S proteasome chymotrypsin-like (CT-L) activity inhibition; type: biochemical
Text: As used herein, the term “inhibitor” is meant to describe a compound that blocks or reduces an activity of an enzyme (for example, inhibition of proteolytic cleavage of standard fluorogenic peptide substrates such as suc-LLVY-AMC, Box-LLR-AMC and Z-LLE-AMC, inhibition of various catalytic activities of the 20S proteasome). An inhibitor can act with competitive, uncompetitive, or noncompetitive inhibition. An inhibitor can bind reversibly or irreversibly, and therefore the term includes compounds that are suicide substrates of an enzyme. An inhibitor can modify one or more sites on or near the active site of the enzyme, or it can cause a conformational change elsewhere on the enzyme.
The chymotrypsin-like activity of 20S proteasome is characterized by cleavage of peptides in the immediate vicinity of large hydrophobic residues. In particular, the chymotrypsin-like activity of Ntn hydrolases can be determined by cleavage of a standard substrate. Examples of such substrates are known in the art. For example, a leucylvalinyltyrosine derivative can be used. Enzyme kinetic assays are disclosed in U.S. application Ser. No. 09/569748, Example 2 and Stein et al., Biochem. (1996), 35, 3899-3908.

[2] = biological target: T1, Cell-based CT-L (proteasome chymotrypsin-like activity) (Homo sapiens, UniProt P28074); assay: Cell-based proteasome CT-L activity inhibition
T1 construct: endogenous in cells
T1 sequence (P28074 60-263): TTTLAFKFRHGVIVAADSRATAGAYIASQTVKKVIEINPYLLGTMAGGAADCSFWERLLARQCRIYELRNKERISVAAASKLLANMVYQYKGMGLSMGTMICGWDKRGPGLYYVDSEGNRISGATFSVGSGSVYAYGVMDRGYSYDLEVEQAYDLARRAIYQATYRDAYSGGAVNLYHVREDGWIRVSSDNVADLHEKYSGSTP

| IC50 [1] [nM] | IC50 [2] [nM] | Compound |
| --- | --- | --- |
| < 50 | < 50 | CC(C)C[C@H](NC(=O)c1ccccc1)C(=O)N[C@@H](Cc1ccccc1)C(=O)N[C@@H](CC(C)C)C(=O)[C@@]1(C)CO1 [Compound 3] |
| < 500 | < 500 | CC(C)C[C@H](NC(=O)C1CCN(S(=O)(=O)c2cccs2)CC1)C(=O)N[C@@H](Cc1ccccc1)C(=O)N[C@@H](CC(C)C)C(=O)[C@@]1(C)CO1 [Compound 7] |
| < 50 | < 50 | Cc1ccc(CCC(=O)N[C@@H](CC(C)C)C(=O)N[C@@H](Cc2ccccc2)C(=O)N[C@@H](CC(C)C)C(=O)[C@@]2(C)CO2)cc1 [Compound 8] |
| < 50 | < 50 | CC(C)C[C@H](NC(=O)[C@H](CCc1ccccc1)NC(=O)CN1CCOCC1)C(=O)N[C@@H](Cc1ccc(F)cc1)C(=O)N[C@@H](CC(C)C)C(=O)[C@@]1(C)CO1 [Compound 9] |
| < 50 | < 50 | CC(C)C[C@H](NS(=O)(=O)c1ccsc1)C(=O)N[C@@H](Cc1ccccc1)C(=O)N[C@@H](CC(C)C)C(=O)[C@@]1(C)CO1 [Compound 14] |
| < 50 | < 50 | COc1ccc(NC(=S)N[C@@H](CC(C)C)C(=O)N[C@@H](Cc2ccccc2)C(=O)N[C@@H](CC(C)C)C(=O)[C@@]2(C)CO2)cc1 [Compound 16] |
| < 50 | < 50 | COc1ccc(NC(=O)N[C@@H](CC(C)C)C(=O)N[C@@H](Cc2ccccc2)C(=O)N[C@@H](CC(C)C)C(=O)[C@@]2(C)CO2)cc1 [Compound 17] |
| < 50 | < 50 | CC(C)C[C@H](NC(=O)CN1CCOCC1)C(=O)N[C@@H](Cc1ccccc1)C(=O)N[C@@H](CC(C)C)C(=O)[C@@]1(C)CO1 [Compound 18] |

| Compound | IC50 [1] [nM] | IC50 [2] [nM] |
| --- | --- | --- |
| CC(=O)N[C@@H](CCc1ccccc1)C(=O)N[C@@H](CC(C)C)C(=O)N[C@@H](CO)C(=O)N[C@@H](CC(C)C)C(=O)[C@@]1(C)CO1 [Compound 2] | < 50 | < 500 |
